Test results from ChEMBL document CHEMBL3217474, “The structure based design of dual HDAC/BET inhibitors as novel epigenetic probes” (Medchemcomm, 2014).
pIC50, pKd: −log10 of the molar value. ≈ marks a conversion by molar mass, not a printed value. Calls of active or inactive are those of the source. No cut-off for these calls is given here.

Columns and labels:
[1] = target: T1, Histone deacetylase 1 (Homo sapiens, UniProt Q13547)
Description: Inhibition of HDAC1 (unknown origin)

[2] = system: PBMC; experiment: Antiinflammatory activity in human PBMC assessed as inhibition of LPS-stimulated TNF-alpha production incubated for 30 mins prior to LPS-challenge measured after overnight incubation; format: functional, cell-based
[3] = target: Histone deacetylase 2 (Homo sapiens, UniProt Q92769)
Description: Binding affinity to HDAC2 in human HL60 cell nuclear extracts assessed as inhibition of enzyme binding to N-SAHA functionalised sepharose beads after 1 hr by coomassie staining-based chemoproteomic competition binding assay

[4] = target: T2, Bromodomain-containing protein 4 (Homo sapiens, UniProt O60885); experiment: Inhibition of His6-tagged BRD4 (1 to 477) (unknown origin) by surface plasmon resonance analysis
[5] = target: T3, Protein deacetylase HDAC6 (Homo sapiens, UniProt Q9UBN7)
T3 sequence (Q9UBN7 whole entry): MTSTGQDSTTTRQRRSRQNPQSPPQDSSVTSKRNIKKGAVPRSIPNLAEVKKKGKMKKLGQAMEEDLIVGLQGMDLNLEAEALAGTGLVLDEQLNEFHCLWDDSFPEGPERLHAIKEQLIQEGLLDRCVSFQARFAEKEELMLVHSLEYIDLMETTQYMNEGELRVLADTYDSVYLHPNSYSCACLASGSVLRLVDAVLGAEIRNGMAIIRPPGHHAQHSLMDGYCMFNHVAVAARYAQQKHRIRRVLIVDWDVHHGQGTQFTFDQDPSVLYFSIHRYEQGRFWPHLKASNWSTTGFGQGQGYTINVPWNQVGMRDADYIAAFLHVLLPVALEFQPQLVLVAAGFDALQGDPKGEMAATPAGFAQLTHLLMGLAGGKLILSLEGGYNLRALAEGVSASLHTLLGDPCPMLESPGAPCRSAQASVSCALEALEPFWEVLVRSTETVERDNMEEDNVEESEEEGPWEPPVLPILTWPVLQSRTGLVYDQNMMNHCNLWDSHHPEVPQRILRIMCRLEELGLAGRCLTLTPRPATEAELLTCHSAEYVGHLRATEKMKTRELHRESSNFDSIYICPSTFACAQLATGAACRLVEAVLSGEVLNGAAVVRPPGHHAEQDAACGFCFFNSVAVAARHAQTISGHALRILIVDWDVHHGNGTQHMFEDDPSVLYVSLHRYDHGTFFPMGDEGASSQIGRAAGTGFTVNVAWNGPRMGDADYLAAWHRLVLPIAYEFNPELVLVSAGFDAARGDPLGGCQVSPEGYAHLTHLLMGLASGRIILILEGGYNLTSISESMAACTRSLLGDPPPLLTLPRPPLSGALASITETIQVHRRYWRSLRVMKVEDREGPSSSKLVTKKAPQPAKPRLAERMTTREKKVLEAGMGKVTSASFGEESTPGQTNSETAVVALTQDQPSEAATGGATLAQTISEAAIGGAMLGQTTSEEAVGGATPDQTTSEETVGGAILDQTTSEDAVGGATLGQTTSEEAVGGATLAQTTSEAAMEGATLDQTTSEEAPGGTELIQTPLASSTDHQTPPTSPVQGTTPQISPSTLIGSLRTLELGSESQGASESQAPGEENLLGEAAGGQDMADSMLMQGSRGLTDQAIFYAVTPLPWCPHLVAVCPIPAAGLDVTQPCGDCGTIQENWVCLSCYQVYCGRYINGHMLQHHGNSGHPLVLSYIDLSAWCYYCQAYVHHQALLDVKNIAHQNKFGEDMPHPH
Description: Inhibition of HDAC6 (unknown origin)

[6] = target: T1, Histone deacetylase 1; remark: listed apart in the source
Description: Binding affinity to HDAC1 in human HL60 cell nuclear extracts assessed as inhibition of enzyme binding to N-SAHA functionalised sepharose beads after 1 hr by coomassie staining-based chemoproteomic competition binding assay

[7] = target: T2, Bromodomain-containing protein 4; experiment: Binding affinity to BRD4 in human HL60 cell nuclear extracts assessed as inhibition of protein binding to N-I-BET functionalised sepharose beads after 1 hr by coomassie staining-based staining-based chemoproteomic competition assay; design: species or system HL-60; details: read-out: Kd(app)
[8] = system: PBMC; experiment: Antiinflammatory activity in human PBMC assessed as inhibition of LPS-stimulated IL-6 production incubated for 30 mins prior to LPS-challenge measured after overnight incubation; format: functional, cell-based
[9] = cells; format: functional; details: Homo sapiens, 72 h
Description: Growth inhibition of human 11060 cells assessed as ATP level after 72 hrs by CellTiterGlo assay

[10] = target: T4, Bromodomain-containing protein 2 (Homo sapiens, UniProt P25440); experiment: Binding affinity to BRD2 in human HL60 cell nuclear extracts assessed as inhibition of protein binding to N-I-BET functionalised sepharose beads at 10 uM after 1 hr by coomassie staining-based chemoproteomic profiling; details: HL-60
Target sequence in this assay (P25440 whole entry, looked up): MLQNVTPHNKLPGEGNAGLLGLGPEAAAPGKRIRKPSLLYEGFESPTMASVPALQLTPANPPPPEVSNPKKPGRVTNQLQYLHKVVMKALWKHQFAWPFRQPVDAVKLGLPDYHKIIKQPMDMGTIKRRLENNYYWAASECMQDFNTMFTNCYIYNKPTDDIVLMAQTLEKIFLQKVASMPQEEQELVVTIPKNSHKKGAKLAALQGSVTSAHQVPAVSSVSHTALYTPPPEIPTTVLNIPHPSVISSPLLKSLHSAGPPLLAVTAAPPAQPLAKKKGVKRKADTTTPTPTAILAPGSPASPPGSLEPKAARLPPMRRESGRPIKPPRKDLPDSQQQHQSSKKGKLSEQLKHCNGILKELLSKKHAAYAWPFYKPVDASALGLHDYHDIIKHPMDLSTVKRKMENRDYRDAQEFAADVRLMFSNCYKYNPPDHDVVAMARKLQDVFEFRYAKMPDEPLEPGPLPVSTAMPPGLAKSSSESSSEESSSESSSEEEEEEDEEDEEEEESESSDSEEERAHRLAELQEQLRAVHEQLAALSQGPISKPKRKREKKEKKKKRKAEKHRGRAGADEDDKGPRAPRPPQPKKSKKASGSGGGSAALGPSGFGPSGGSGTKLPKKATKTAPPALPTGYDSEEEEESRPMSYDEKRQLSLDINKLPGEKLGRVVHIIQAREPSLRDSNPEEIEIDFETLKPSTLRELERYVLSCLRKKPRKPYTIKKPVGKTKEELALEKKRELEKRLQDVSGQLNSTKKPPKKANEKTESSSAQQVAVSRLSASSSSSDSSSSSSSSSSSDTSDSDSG

[11] = system: HL-60; experiment: cells; format: functional, cell-based; details: Homo sapiens, HL-60, 72 h
Description: Growth inhibition of human HL60 cells assessed as ATP level after 72 hrs by CellTiterGlo assay

[12] = species: Homo sapiens; experiment: Inhibition of BET in human 11060 cells assessed as downregulation of c-Myc expression level at IC90 after 6 to 24 hrs by Western blotting analysis; format: cell-based
[13] = system: MV4-11; experiment: cells; format: functional, cell-based; details: Homo sapiens, MV4-11, 72 h
Description: Growth inhibition of human MV4-11 cells assessed as ATP level after 72 hrs by CellTiterGlo assay

[14] = Solubility of the compound by chemiluminescent nitrogen detection method; format: physicochemical
[15] = target: T5, Bromodomain-containing protein 3 (Homo sapiens, UniProt Q15059); experiment: Binding affinity to BRD3 in human HL60 cell nuclear extracts assessed as inhibition of protein binding to N-I-BET functionalised sepharose beads after 1 hr by coomassie staining-based chemoproteomic competition binding assay; design: species or system HL-60; details: read-out: Kd(app)
Target sequence in this assay (Q15059 whole entry): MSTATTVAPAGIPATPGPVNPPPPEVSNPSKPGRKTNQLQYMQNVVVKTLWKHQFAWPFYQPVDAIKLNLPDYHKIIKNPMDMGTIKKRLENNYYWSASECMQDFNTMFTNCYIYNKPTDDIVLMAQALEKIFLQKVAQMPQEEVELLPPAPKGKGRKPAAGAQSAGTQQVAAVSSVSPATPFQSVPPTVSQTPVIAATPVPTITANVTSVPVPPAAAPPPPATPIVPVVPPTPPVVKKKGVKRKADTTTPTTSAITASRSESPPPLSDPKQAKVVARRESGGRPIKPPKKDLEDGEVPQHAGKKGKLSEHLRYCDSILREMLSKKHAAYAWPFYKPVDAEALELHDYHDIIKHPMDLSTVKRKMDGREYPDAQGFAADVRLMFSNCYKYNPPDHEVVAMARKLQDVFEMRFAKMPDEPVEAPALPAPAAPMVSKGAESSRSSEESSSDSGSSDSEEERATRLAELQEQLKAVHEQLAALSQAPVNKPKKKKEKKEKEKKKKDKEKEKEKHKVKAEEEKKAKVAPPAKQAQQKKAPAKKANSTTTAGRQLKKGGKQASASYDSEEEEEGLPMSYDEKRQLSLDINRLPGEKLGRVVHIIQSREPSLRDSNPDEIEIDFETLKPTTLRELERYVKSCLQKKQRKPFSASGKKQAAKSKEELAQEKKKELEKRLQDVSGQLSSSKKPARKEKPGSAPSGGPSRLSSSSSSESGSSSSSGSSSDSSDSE

[16] = target: T2, Bromodomain-containing protein 4; experiment: Inhibition of recombinant BRD4 bromodomain 1 (unknown origin) using histone H4 peptide as substrate incubated for 1 hr under dark condition by HTRF assay
[17] = target: T6, Histone deacetylase 8 (Homo sapiens, UniProt Q9BY41)
T6 sequence (Q9BY41 whole entry): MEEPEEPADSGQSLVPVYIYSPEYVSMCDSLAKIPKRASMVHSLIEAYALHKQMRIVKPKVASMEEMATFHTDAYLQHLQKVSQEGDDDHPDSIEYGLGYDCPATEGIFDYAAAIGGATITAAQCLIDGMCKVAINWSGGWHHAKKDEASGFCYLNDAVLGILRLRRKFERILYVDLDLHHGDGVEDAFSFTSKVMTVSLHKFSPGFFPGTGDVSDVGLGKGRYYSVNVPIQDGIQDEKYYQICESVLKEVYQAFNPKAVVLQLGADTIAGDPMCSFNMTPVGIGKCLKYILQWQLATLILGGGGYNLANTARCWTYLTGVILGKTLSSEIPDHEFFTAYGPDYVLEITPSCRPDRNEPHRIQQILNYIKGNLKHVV
Description: Binding affinity to HDAC8 in human HL60 cell nuclear extracts assessed as inhibition of enzyme binding to N-SAHA functionalised sepharose beads after 1 hr by coomassie staining-based chemoproteomic competition binding assay

[18] = target: T2, Bromodomain-containing protein 4; experiment: Binding affinity to BRD4 in human HL60 cell nuclear extracts assessed as inhibition of protein binding to N-I-BET functionalised sepharose beads at 10 uM after 1 hr by coomassie staining-based staining-based chemoproteomic profiling; details: HL-60
[19] = target: T4, Bromodomain-containing protein 2; experiment: Binding affinity to BRD2 in human HL60 cell nuclear extracts assessed as inhibition of protein binding to N-I-BET functionalised sepharose beads after 1 hr by coomassie staining-based chemoproteomic competition binding assay; design: species or system HL-60; details: read-out: Kd(app)
Target sequence in this assay (P25440 whole entry): as the sequence (P25440 whole entry, looked up) above

[20] = target: T2, Bromodomain-containing protein 4; experiment: Inhibition of BRD4 bromodomain 2 (338 to 437) (unknown origin) by surface plasmon resonance analysis
[21] = Permeability of the compound in artificial membrane; format: physicochemical, cell membranes; details: PAMPA; read-out: permeability
[22] = target: Histone deacetylase 9 (Homo sapiens, UniProt Q9UKV0)
Sequence of Histone deacetylase 9 (Q9UKV0 whole entry): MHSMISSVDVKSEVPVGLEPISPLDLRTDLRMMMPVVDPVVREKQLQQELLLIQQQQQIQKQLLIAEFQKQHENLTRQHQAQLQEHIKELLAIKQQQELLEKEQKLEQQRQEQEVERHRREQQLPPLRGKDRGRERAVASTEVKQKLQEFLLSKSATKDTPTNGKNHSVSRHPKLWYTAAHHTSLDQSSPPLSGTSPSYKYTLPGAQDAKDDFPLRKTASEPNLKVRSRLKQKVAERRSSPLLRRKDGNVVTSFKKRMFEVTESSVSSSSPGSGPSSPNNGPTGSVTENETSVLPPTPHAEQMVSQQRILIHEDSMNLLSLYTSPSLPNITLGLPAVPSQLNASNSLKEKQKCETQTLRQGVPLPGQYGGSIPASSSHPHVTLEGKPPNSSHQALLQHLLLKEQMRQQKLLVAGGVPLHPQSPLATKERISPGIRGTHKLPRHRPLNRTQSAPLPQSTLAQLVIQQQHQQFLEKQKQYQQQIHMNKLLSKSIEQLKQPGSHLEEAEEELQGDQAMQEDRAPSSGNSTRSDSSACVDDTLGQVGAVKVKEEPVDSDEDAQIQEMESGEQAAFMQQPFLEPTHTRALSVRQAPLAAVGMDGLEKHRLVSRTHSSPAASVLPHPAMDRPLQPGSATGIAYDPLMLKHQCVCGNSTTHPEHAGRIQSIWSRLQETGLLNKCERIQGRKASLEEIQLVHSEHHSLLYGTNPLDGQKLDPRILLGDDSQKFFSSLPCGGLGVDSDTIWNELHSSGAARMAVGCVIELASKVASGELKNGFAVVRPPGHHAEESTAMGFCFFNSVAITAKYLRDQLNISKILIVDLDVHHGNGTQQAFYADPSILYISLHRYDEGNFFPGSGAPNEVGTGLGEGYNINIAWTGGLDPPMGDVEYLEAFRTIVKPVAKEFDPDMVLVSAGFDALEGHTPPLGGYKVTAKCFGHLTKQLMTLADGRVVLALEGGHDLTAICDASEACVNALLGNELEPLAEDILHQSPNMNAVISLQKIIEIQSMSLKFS
Description: Inhibition of HDAC9 (unknown origin)

[23] = target: Histone deacetylase 3 (Homo sapiens, UniProt O15379)
Sequence of Histone deacetylase 3 (O15379 whole entry): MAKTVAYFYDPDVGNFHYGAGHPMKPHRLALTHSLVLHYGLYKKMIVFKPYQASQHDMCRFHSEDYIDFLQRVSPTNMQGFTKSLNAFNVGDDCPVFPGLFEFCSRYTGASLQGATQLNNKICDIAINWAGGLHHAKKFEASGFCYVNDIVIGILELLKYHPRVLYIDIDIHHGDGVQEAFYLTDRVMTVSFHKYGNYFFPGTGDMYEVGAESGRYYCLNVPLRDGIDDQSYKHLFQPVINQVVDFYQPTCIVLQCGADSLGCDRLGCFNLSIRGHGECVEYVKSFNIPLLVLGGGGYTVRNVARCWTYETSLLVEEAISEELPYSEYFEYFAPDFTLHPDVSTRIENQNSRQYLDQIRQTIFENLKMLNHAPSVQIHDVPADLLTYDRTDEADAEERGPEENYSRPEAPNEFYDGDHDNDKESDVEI
Description: Binding affinity to HDAC3 in human HL60 cell nuclear extracts assessed as inhibition of enzyme binding to N-SAHA functionalised sepharose beads after 1 hr by coomassie staining-based chemoproteomic competition binding assay

[24] = target: T5, Bromodomain-containing protein 3; experiment: Binding affinity to BRD3 in human HL60 cell nuclear extracts assessed as inhibition of protein binding to N-I-BET functionalised sepharose beads at 10 uM after 1 hr by coomassie staining-based staining-based chemoproteomic profiling; details: HL-60
Target sequence in this assay (Q15059 2-726 limits assumed): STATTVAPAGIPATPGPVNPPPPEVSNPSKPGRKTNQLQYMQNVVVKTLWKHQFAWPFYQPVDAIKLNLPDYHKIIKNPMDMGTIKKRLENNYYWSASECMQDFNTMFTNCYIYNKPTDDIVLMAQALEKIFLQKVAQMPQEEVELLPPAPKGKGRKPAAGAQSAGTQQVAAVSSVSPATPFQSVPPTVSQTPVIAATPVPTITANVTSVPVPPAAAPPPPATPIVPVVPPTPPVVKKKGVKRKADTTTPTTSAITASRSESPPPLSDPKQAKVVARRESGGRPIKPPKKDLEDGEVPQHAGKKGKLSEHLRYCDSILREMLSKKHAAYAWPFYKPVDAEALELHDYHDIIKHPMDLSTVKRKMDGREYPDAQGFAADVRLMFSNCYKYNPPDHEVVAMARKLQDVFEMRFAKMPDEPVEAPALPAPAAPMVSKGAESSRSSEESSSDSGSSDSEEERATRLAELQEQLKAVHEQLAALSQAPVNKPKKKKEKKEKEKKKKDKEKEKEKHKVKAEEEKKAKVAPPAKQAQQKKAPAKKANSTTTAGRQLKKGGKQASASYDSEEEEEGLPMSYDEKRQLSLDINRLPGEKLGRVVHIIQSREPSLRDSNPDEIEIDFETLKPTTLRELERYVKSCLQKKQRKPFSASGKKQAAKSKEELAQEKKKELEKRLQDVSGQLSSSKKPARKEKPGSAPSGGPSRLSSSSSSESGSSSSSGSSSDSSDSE

[25] = target: T7, Polyamine deacetylase HDAC10 (Homo sapiens, UniProt Q969S8)
T7 sequence (Q969S8 whole entry): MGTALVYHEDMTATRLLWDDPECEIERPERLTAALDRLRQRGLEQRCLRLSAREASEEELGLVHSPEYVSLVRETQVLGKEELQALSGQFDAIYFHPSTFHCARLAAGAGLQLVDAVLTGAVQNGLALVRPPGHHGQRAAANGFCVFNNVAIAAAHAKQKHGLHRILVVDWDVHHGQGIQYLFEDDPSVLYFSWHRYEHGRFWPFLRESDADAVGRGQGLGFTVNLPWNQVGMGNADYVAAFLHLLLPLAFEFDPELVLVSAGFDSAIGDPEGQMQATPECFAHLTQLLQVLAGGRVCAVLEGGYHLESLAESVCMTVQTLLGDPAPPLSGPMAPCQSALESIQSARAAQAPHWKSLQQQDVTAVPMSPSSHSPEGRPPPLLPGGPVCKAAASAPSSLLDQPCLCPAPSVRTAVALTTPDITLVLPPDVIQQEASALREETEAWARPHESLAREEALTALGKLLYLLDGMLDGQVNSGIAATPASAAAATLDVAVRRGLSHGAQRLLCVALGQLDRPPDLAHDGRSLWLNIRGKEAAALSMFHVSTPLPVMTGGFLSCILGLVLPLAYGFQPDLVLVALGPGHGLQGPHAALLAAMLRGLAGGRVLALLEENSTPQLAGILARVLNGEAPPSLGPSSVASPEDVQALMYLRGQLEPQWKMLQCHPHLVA
Description: Binding affinity to HDAC10 in human HL60 cell nuclear extracts assessed as inhibition of enzyme binding to N-SAHA functionalised sepharose beads after 1 hr by coomassie staining-based chemoproteomic competition binding assay

[26] = target: T3, Protein deacetylase HDAC6; remark: listed apart in the source
Description: Binding affinity to HDAC6 in human HL60 cell nuclear extracts assessed as inhibition of enzyme binding to N-SAHA functionalised sepharose beads after 1 hr by coomassie staining-based chemoproteomic competition binding assay

T1 sequence (Q13547 whole entry): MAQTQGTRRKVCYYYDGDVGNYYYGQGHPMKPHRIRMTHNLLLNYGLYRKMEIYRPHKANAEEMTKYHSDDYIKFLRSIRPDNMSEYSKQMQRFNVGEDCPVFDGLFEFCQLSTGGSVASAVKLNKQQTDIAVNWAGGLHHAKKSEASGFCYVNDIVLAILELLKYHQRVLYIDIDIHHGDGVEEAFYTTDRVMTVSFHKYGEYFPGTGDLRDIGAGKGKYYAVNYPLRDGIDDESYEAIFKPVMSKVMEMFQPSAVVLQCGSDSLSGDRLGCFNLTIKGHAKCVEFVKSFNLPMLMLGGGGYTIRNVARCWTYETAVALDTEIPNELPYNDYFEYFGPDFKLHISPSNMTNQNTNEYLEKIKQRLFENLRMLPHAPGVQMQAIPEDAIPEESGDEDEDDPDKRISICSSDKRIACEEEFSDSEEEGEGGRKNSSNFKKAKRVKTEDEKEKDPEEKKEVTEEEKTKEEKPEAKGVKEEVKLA

Compound	pIC50 [1]	pIC50 [5]	inhibition [10]	solubility ([14]; read-out: solubility) [µM]	pIC50 [16]	inhibition [18]	Papp [21] [×10⁻⁶ cm/s]	pIC50 [22]	inhibition [24]	further results
CC(=O)N1c2ccc(-c3ccc(NC(=O)CCCCCCC(=O)NO)cc3)cc2[C@H](NC(=O)OC(C)C)C[C@@H]1C	6.60	6.38	Active	154 (≈ 85.1 µg/mL)	7.30	Active	< 0.3	4.46	Active	pIC50 [2]: 7.30; pKd [3]: 6.02; pKd [4]: 7.24; pKd [6]: 6.48; pKd [7]: 6.95; pIC50 [8]: 6.66; pIC50 [9]: 6.08; pIC50 [11]: 6.12; inhibition [12]: Active; pIC50 [13]: 6.48; pKd [15]: 7.15; pKd [17]: 6.48; pKd [19]: 7.49; pKd [20]: 7.28; pKd [23]: 6.37; pKd [25]: 6.68; pKd [26]: 6.63
CNCc1ccc(-c2ccc3c(c2)[C@H](NC(=O)OC(C)C)C[C@H](C)N3C(C)=O)cc1	< 4.00	–	Active	357 (≈ 146 µg/mL)	6.55	Active	17.4	< 4.00	Active	pIC50 [2]: 9.00; pIC50 [8]: 8.30; pIC50 [9]: 6.51; pIC50 [11]: 6.42; pIC50 [13]: 6.72
CC(=O)N1c2ccc(-c3ccccc3)cc2[C@H](NC(=O)CCCCCCC(=O)NO)C[C@@H]1C	7.30	5.89	Active	> 442	6.44	Active	0.8	6.03	Active	–
CC(=O)N1c2ccc(NC(=O)CCCCCCC(=O)O)cc2[C@H](NC(=O)OC(C)C)C[C@@H]1C	–	–	Active	–	–	Active	–	–	Active	–
CC(=O)N1c2ccc(NC(=O)CCCCCCC(=O)NO)cc2[C@H](Nc2ccccc2)C[C@@H]1C	6.05	6.01	–	31 (≈ 14.5 µg/mL)	7.00	–	3.1	4.42	–	–
CC(=O)N1c2ccc(NC(=O)CCCCCCC(=O)NO)cc2[C@H](NC(=O)OC(C)C)C[C@@H]1C	6.60	5.76	–	> 182	6.54	–	< 0.3	4.21	–	–
O=C(CCCCCCC(=O)Nc1ccccc1)NO [VORINOSTAT]	–	–	–	–	< 4.30	–	1.5	–	–	solubility [14]: 307 µM (≈ 81.1 µg/mL)
